Measured values published in the supplement of paper PMC10307832.

Columns and labels:
Experiment in all cases: relative viability (nuclei count vs DMSO), 5 days (fraction); higher = more cells survive
Gemcitabine + Vorinostat = compound: Nc1ccn([C@@H]2O[C@H](CO)[C@@H](O)C2(F)F)c(=O)n1 [Gemcitabine] + O=C(CCCCCCC(=O)Nc1ccccc1)NO [Vorinostat] (partner 1 µM)
Method in brief: (§1)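 Dosing by pin tool came one day after lung cancer cell lines were seeded in 1536-well plates, using either one drug or a fixed anchor-drug dose plus five library-drug doses (not always all listed) in √10 steps. After 5 days, nuclei were counted on 4× images. Relative viability is treated-well nuclei count divided by vehicle-well nuclei count, and values are medians of duplicate plates.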

Gemcitabine + Pemetrexed = compound: Nc1ccn([C@@H]2O[C@H](CO)[C@@H](O)C2(F)F)c(=O)n1 [Gemcitabine] + Nc1nc2[nH]cc(CCc3ccc(C(=O)N[C@@H](CCC(=O)O)C(=O)O)cc3)c2c(=O)[nH]1 [Pemetrexed] (partner 0.2 µM)
Method in brief: as §1

Gemcitabine + Dasatinib = compound: Nc1ccn([C@@H]2O[C@H](CO)[C@@H](O)C2(F)F)c(=O)n1 [Gemcitabine] + Cc1nc(Nc2ncc(C(=O)Nc3c(C)cccc3Cl)s2)cc(N2CCN(CCO)CC2)n1 [Dasatinib] (partner 0.075 µM)
Method in brief: as §1

[1] = compound: Nc1ccn([C@@H]2O[C@H](CO)[C@@H](O)C2(F)F)c(=O)n1 [Gemcitabine] + CC(=O)c1c(C)c2cnc(Nc3ccc(N4CCNCC4)cn3)nc2n(C2CCCC2)c1=O [Palbociclib] (partner 0.5 µM)
Method in brief: as §1

Row | Cell Line | relative viability (Gemcitabine + Vorinostat; first compound 0.001 µM) | relative viability (Gemcitabine + Vorinostat; first compound 0.003162 µM) | relative viability (Gemcitabine + Vorinostat; first compound 0.01 µM) | relative viability (Gemcitabine + Vorinostat; first compound 0.03162 µM) | relative viability (Gemcitabine + Vorinostat; first compound 0.1 µM) | relative viability (Gemcitabine + Pemetrexed; first compound 0.001 µM) | relative viability (Gemcitabine + Pemetrexed; first compound 0.003162 µM) | relative viability (Gemcitabine + Pemetrexed; first compound 0.01 µM) | relative viability (Gemcitabine + Pemetrexed; first compound 0.03162 µM) | relative viability (Gemcitabine + Pemetrexed; first compound 0.1 µM) | relative viability (Gemcitabine + Dasatinib; first compound 0.001 µM) | relative viability (Gemcitabine + Dasatinib; first compound 0.003162 µM) | relative viability (Gemcitabine + Dasatinib; first compound 0.01 µM) | relative viability (Gemcitabine + Dasatinib; first compound 0.03162 µM) | relative viability (Gemcitabine + Dasatinib; first compound 0.1 µM) | relative viability ([1]; first compound 0.001 µM) | relative viability ([1]; first compound 0.003162 µM) | relative viability ([1]; first compound 0.01 µM) | relative viability ([1]; first compound 0.03162 µM) | relative viability ([1]; first compound 0.1 µM)
1 | NCI-H441 | 0.717 | 0.265 | 0.182 | 0.157 | 0.123 | 0.277 | 0.282 | 0.217 | 0.16 | 0.115 | 0.569 | 0.282 | 0.215 | 0.129 | 0.133 | 0.242 | 0.163 | 0.178 | 0.13 | 0.123
2 | NCI-H460 | 0.855 | 0.736 | 0.458 | 0.0301 | 0.0175 | 0.06 | 0.0638 | 0.0721 | 0.029 | 0.019 | 0.495 | 0.524 | 0.46 | 0.0224 | 0.0058 | 0.129 | 0.212 | 0.0945 | 0.0273 | 0.0115
3 | NCI-H520 | 0.728 | 0.81 | 0.336 | 0.211 | 0.157 | 0.663 | 0.719 | 0.275 | 0.177 | 0.161 | 0.212 | 0.258 | 0.161 | 0.151 | 0.154 | 0.237 | 0.23 | 0.174 | 0.164 | 0.146
4 | NCI-H522 | 0.829 | 0.63 | 0.4 | 0.331 | 0.294 | 0.954 | 0.953 | 0.419 | 0.367 | 0.316 | 0.987 | 0.722 | 0.384 | 0.42 | 0.36 | 0.885 | 0.729 | 0.528 | 0.394 | 0.364
5 | NCI-H647 | 0.435 | 0.129 | 0.0559 | 0.0673 | 0.0443 | 0.211 | 0.178 | 0.072 | 0.0569 | 0.0589 | 0.1 | 0.0588 | 0.0298 | 0.0257 | 0.0223 | 0.388 | 0.287 | 0.0692 | 0.0695 | 0.044
6 | NCI-H650 | 0.38 | 0.25 | 0.15 | 0.121 | 0.111 | 0.865 | 0.555 | 0.222 | 0.128 | 0.12 | 0.428 | 0.329 | 0.228 | 0.149 | 0.157 | 0.221 | 0.189 | 0.136 | 0.123 | 0.146
7 | NCI-H661 | 0.766 | 0.725 | 0.598 | 0.303 | 0.234 | 0.895 | 0.998 | 0.891 | 0.299 | 0.216 | 1.07 | 0.814 | 0.428 | 0.176 | 0.18 | 0.394 | 0.409 | 0.411 | 0.241 | 0.237
8 | NCI-H838 | 0.77 | 0.777 | 0.66 | 0.479 | 0.168 | 0.251 | 0.262 | 0.24 | 0.241 | 0.149 | 0.293 | 0.287 | 0.318 | 0.261 | 0.136 | 0.228 | 0.244 | 0.237 | 0.199 | 0.125
9 | NCI-H1355 | 0.632 | 0.473 | 0.274 | 0.166 | 0.146 | 1 | 0.885 | 0.455 | 0.173 | 0.162 | 0.813 | 0.695 | 0.226 | 0.196 | 0.143 | 0.403 | 0.365 | 0.251 | 0.168 | 0.146
10 | NCI-H1395 | 0.593 | 0.517 | 0.384 | 0.331 | 0.345 | 0.91 | 0.622 | 0.335 | 0.296 | 0.312 | 0.409 | 0.368 | 0.371 | 0.321 | 0.31 | 0.614 | 0.627 | 0.445 | 0.352 | 0.347
11 | NCI-H1437 | 0.749 | 0.792 | 0.645 | 0.398 | 0.232 | 0.285 | 0.325 | 0.27 | 0.276 | 0.254 | 0.392 | 0.274 | 0.285 | 0.139 | 0.107 | 0.317 | 0.351 | 0.331 | 0.225 | 0.171
12 | NCI-H1650 | 0.55 | 0.33 | 0.34 | 0.21 | 0.127 | 0.362 | 0.326 | 0.305 | 0.157 | 0.172 | 0.297 | 0.241 | 0.141 | 0.088 | 0.115 | 0.339 | 0.308 | 0.261 | 0.186 | 0.127
13 | NCI-H1651 | 0.555 | 0.537 | 0.548 | 0.301 | 0.115 | 0.561 | 0.575 | 0.584 | 0.362 | 0.0991 | 0.412 | 0.495 | 0.257 | 0.0946 | 0.0687 | 0.509 | 0.496 | 0.536 | 0.311 | 0.136
14 | NCI-H1666 | 1.02 | 0.955 | 0.963 | 0.927 | 0.576 | 0.88 | 0.842 | 0.842 | 0.699 | 0.52 | 0.797 | 0.796 | 0.715 | 0.52 | 0.375 | 0.603 | 0.664 | 0.651 | 0.596 | 0.578
15 | NCI-H1734 | 0.746 | 0.626 | 0.119 | 0.114 | 0.0915 | 0.408 | 0.377 | 0.197 | 0.139 | 0.136 | 0.385 | 0.354 | 0.111 | 0.0942 | 0.091 | 0.318 | 0.293 | 0.174 | 0.149 | 0.131
16 | NCI-H1755 | 0.804 | 0.751 | 0.599 | 0.469 | 0.313 | 0.414 | 0.47 | 0.319 | 0.376 | 0.355 | 0.454 | 0.457 | 0.392 | 0.243 | 0.207 | 0.431 | 0.425 | 0.401 | 0.414 | 0.421
